Consider eight compounds from ChEMBL document CHEMBL4411285, “Design, synthesis, in silico pharmacokinetics prediction and biological evaluation of 1,4-dihydroindeno[1,2-c]pyrazole chalcone as EGFR /Akt pathway inhibitors” (Eur J Med Chem, 2019).

One may read the IC50 as the concentration that gives 50% inhibition. A low value points to greater potency.

The first assay relates to HEK-293T. The assay can be described thus: Cytotoxicity against human HEK293T cells after 24 hrs by MTT assay. The class given is cell-based.
Conditions: not given
On the technique in general: Tetrazolium assays rely on reduction of a dye to a coloured formazan, in cell work by metabolically active cells.
`COc1ccc2c(c1)-c1n[nH]c(/C=C/C(=O)c3ccc(N)cc3)c1C2` showed an IC50 of 19 µM.

For the compound `COc1ccc(C(=O)/C=C/c2[nH]nc3c2Cc2ccccc2-3)cc1`, the IC50 is 21 µM.

As to `COc1ccc(C(=O)/C=C/c2[nH]nc3c2Cc2ccccc2-3)cc1OC`, inhibition was half-maximal at 38 µM (IC50).

For the compound `COc1cc2c(cc1OC)-c1n[nH]c(/C=C/C(=O)c3ccc4c(c3)OCO4)c1C2`, the IC50 was 18 µM.

`Nc1ccc(C(=O)/C=C/c2[nH]nc3c2Cc2ccccc2-3)cc1` displayed an IC50 of 35 µM.

In turn, `COc1ccc2c(c1)-c1n[nH]c(/C=C/C(=O)c3ccc(OC)c(OC)c3)c1C2` had an IC50 of 33 µM.

The compound `COc1cc(C(=O)/C=C/c2[nH]nc3c2Cc2ccccc2-3)cc(OC)c1OC` yielded an IC50 of 25 µM. This IC50 and that of the compound before are within 1.5-fold of each other.

In turn, `COc1ccc2c(c1)-c1n[nH]c(/C=C/C(=O)c3ccc4c(c3)OCO4)c1C2` returned an IC50 of 54 µM.

The subject of a further assay is SK-BR-3. Put plainly: Cytotoxicity against human SKBR3 cells after 24 hrs by MTT assay. It is filed as functional, cell-based. As to conditions: SK-BR-3, 24 h.
As to `COc1ccc2c(c1)-c1n[nH]c(/C=C/C(=O)c3ccc(N)cc3)c1C2`, the IC50 is 12.5 µM.

In the case of `COc1ccc(C(=O)/C=C/c2[nH]nc3c2Cc2ccccc2-3)cc1`, the IC50 was determined as 14.7 µM. This IC50 and that of the compound before are within 1.5-fold of each other.

With `COc1ccc(C(=O)/C=C/c2[nH]nc3c2Cc2ccccc2-3)cc1OC`, the IC50 was determined as 11.4 µM.

As to `COc1cc2c(cc1OC)-c1n[nH]c(/C=C/C(=O)c3ccc4c(c3)OCO4)c1C2`, the IC50 came out at 8.12 µM.

`Nc1ccc(C(=O)/C=C/c2[nH]nc3c2Cc2ccccc2-3)cc1` displayed an IC50 of 7.47 µM.

Regarding `COc1ccc2c(c1)-c1n[nH]c(/C=C/C(=O)c3ccc(OC)c(OC)c3)c1C2`, the midpoint of inhibition, the IC50, lay at 9.22 µM.

`COc1cc(C(=O)/C=C/c2[nH]nc3c2Cc2ccccc2-3)cc(OC)c1OC` returned an IC50 of 8.64 µM.

In turn, `COc1ccc2c(c1)-c1n[nH]c(/C=C/C(=O)c3ccc4c(c3)OCO4)c1C2` gave an IC50 of 12.5 µM.

The next assay has as its system HCT-116. The assay can be described thus: Cytotoxicity against human HCT116 cells after 24 hrs by MTT assay. The class given is functional, cell-based. As to conditions: HCT-116, 24 h.
The compound `COc1ccc2c(c1)-c1n[nH]c(/C=C/C(=O)c3ccc(N)cc3)c1C2` gave an IC50 of 19.8 µM.

`COc1ccc(C(=O)/C=C/c2[nH]nc3c2Cc2ccccc2-3)cc1`: the IC50 stood at 10.8 µM.

In turn, `COc1ccc(C(=O)/C=C/c2[nH]nc3c2Cc2ccccc2-3)cc1OC` came in with an IC50 of 20.5 µM. Against the preceding compound, the IC50 is about 1.9-fold higher.

`COc1cc2c(cc1OC)-c1n[nH]c(/C=C/C(=O)c3ccc4c(c3)OCO4)c1C2` returned an IC50 of 11.6 µM.

`Nc1ccc(C(=O)/C=C/c2[nH]nc3c2Cc2ccccc2-3)cc1`: the IC50 turned out to be 14.9 µM.

In turn, `COc1ccc2c(c1)-c1n[nH]c(/C=C/C(=O)c3ccc(OC)c(OC)c3)c1C2` displayed an IC50 of 12.2 µM.

`COc1cc(C(=O)/C=C/c2[nH]nc3c2Cc2ccccc2-3)cc(OC)c1OC` yielded an IC50 of 12.8 µM.

Consider `COc1ccc2c(c1)-c1n[nH]c(/C=C/C(=O)c3ccc4c(c3)OCO4)c1C2`, for which half-maximal inhibition (IC50) required 13.7 µM.

For another assay, the system named is MCF7. The assay can be described thus: Cytotoxicity against human MCF7 cells after 24 hrs by MTT assay. As to conditions: MCF7, 24 h. It is filed as functional, cell-based.
Take `COc1ccc2c(c1)-c1n[nH]c(/C=C/C(=O)c3ccc(N)cc3)c1C2`: the IC50 was 11.2 µM.

With `COc1ccc(C(=O)/C=C/c2[nH]nc3c2Cc2ccccc2-3)cc1`, the IC50 came out at 11.5 µM.

The compound `COc1ccc(C(=O)/C=C/c2[nH]nc3c2Cc2ccccc2-3)cc1OC` showed an IC50 of 10.1 µM.

`COc1cc2c(cc1OC)-c1n[nH]c(/C=C/C(=O)c3ccc4c(c3)OCO4)c1C2`: the IC50 came out at 6.9 µM.

Regarding `Nc1ccc(C(=O)/C=C/c2[nH]nc3c2Cc2ccccc2-3)cc1`, half-maximal inhibition (IC50) was put at 8.35 µM. The IC50 values of the last two compounds are within 1.5-fold of each other.

As for `COc1ccc2c(c1)-c1n[nH]c(/C=C/C(=O)c3ccc(OC)c(OC)c3)c1C2`, the half-inhibitory concentration (IC50) amounted to 7.99 µM.

On to `COc1cc(C(=O)/C=C/c2[nH]nc3c2Cc2ccccc2-3)cc(OC)c1OC`, for which the IC50 is 8.49 µM. The IC50 values of the last two compounds are within 1.5-fold of each other.

As to `COc1ccc2c(c1)-c1n[nH]c(/C=C/C(=O)c3ccc4c(c3)OCO4)c1C2`, the IC50 stood at 9.99 µM.

For another assay, the system named is MDA-MB-231. The assay can be described thus: Cytotoxicity against human MDA-MB-231 cells after 24 hrs by MTT assay. The class given is functional, cell-based. As to conditions: MDA-MB-231, 24 h.
The compound `COc1ccc2c(c1)-c1n[nH]c(/C=C/C(=O)c3ccc(N)cc3)c1C2` yielded an IC50 of 11.9 µM.

For `COc1ccc(C(=O)/C=C/c2[nH]nc3c2Cc2ccccc2-3)cc1`, the midpoint of inhibition, the IC50, lay at 10.1 µM.

`COc1ccc(C(=O)/C=C/c2[nH]nc3c2Cc2ccccc2-3)cc1OC` gave a 50% inhibitory concentration (IC50) of 6.82 µM.

In turn, `COc1cc2c(cc1OC)-c1n[nH]c(/C=C/C(=O)c3ccc4c(c3)OCO4)c1C2` registered an IC50 of 5.28 µM.

On to `Nc1ccc(C(=O)/C=C/c2[nH]nc3c2Cc2ccccc2-3)cc1`, for which the IC50 is 5.66 µM. The IC50 values of the last two compounds are within 1.5-fold of each other.

`COc1ccc2c(c1)-c1n[nH]c(/C=C/C(=O)c3ccc(OC)c(OC)c3)c1C2` showed an IC50 of 4.48 µM.

Take `COc1cc(C(=O)/C=C/c2[nH]nc3c2Cc2ccccc2-3)cc(OC)c1OC`: the IC50 turned out to be 5.52 µM.

In turn, `COc1ccc2c(c1)-c1n[nH]c(/C=C/C(=O)c3ccc4c(c3)OCO4)c1C2` displayed an IC50 of 9.31 µM. Compared with the last compound, the IC50 is about 1.7-fold higher.

The next assay has as its system A549. Put plainly: Cytotoxicity against human A549 cells after 24 hrs by MTT assay. The class given is functional, cell-based. The following applies: A549, 24 h.
`COc1ccc2c(c1)-c1n[nH]c(/C=C/C(=O)c3ccc(N)cc3)c1C2` registered an IC50 of 11.3 µM. This counts as double-digit micromolar.

Turning to `COc1ccc(C(=O)/C=C/c2[nH]nc3c2Cc2ccccc2-3)cc1`, the IC50 was determined as 14.3 µM.

`COc1ccc(C(=O)/C=C/c2[nH]nc3c2Cc2ccccc2-3)cc1OC` yielded an IC50 of 13.4 µM.

In turn, `COc1cc2c(cc1OC)-c1n[nH]c(/C=C/C(=O)c3ccc4c(c3)OCO4)c1C2` displayed an IC50 of 11.9 µM.

`Nc1ccc(C(=O)/C=C/c2[nH]nc3c2Cc2ccccc2-3)cc1` registered an IC50 of 11.5 µM.

For `COc1ccc2c(c1)-c1n[nH]c(/C=C/C(=O)c3ccc(OC)c(OC)c3)c1C2`, the IC50 is 10.4 µM.

Compound `COc1cc(C(=O)/C=C/c2[nH]nc3c2Cc2ccccc2-3)cc(OC)c1OC` displayed an IC50 of 10.9 µM. This IC50 and that of the compound before are within 1.5-fold of each other.

`COc1ccc2c(c1)-c1n[nH]c(/C=C/C(=O)c3ccc4c(c3)OCO4)c1C2` displayed an IC50 of 12.4 µM.
